Measurements from patent US8178530B2, “Imidazolopyrazine compounds useful for the treatment of degenerative and inflammatory diseases” (Janssen Pharmaceutica NV, priority 2006, dated 2012).

How the values were obtained:
MAPKAPK5 = target: T1, MAPKAPK5 (Homo sapiens, UniProt Q8IW41); test: MAPKAP-K5 assay (FlashPlate, 33P-ATP); format: biochemical; details: 0.6 μM ATP, 30 minutes at room temperature
T1 construct: 1 mU MAPKAP-K5
T1 sequence (Q8IW41 1-473): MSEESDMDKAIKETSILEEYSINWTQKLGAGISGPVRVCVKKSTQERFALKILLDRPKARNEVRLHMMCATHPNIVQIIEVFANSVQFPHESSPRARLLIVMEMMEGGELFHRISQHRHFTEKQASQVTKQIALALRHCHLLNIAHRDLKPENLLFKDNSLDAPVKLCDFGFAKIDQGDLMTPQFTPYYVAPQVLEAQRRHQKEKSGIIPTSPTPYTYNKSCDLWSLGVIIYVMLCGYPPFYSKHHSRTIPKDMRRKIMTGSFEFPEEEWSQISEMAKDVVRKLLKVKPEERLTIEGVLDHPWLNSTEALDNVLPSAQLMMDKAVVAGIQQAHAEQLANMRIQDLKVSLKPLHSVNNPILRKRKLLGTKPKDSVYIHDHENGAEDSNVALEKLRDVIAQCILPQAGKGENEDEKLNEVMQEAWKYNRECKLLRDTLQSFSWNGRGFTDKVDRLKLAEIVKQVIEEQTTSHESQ
Method: 3 μM MAPKAP-K5 peptide substrate

MMP1 expression by SFs = test: 'MMP assay': MMP1 expression by 'complex trigger' activated synovial fibroblasts (MMP1 ELISA); format: cell-based, human; details: Homo sapiens, Fibroblast, RASFs, 48 hrs

| Compound | IC50 (MAPKAPK5) [nM] | EC50 (MMP1 expression by SFs) [nM] |
| --- | --- | --- |
| CCN(CC)CCNS(=O)(=O)c1ccc(Nc2ncc(-c3cn[nH]c3)n3ccnc23)cc1 [Compound 69, N-(2-Diethylaminoethyl)-4-[5-(1H-pyrazol-4-yl)imidazo[1,2-a]pyrazin-8-ylamino]benzenesulfonamide] | 101 to 500 | > 1000 |
| C[C@@H]1CN(c2ccc(Nc3ncc(-c4cc(C(N)=O)co4)n4ccnc34)cc2)[C@@H](C)CN1C [Compound 187] | 1 to 100 | 101 to 500 |
| NC(=O)c1ncc(-c2cnc(Nc3ccc(N4CCOCC4)cc3)c3nccn23)s1 [Compound 173, 5-[8-(4-Morpholin-4-yl-phenylamino)-imidazo[1,2-a]pyrazin-5-yl]-thiazole-2-carboxylic acid amide] | > 1000 | > 1000 |
| CCN(CC)CCNC(=O)c1ccc(Nc2ncc(-c3cn[nH]c3)n3ccnc23)cc1 [Compound 32, N-(2-Diethylamino-ethyl)-4-[5-(1H-pyrazol-4-yl)-imidazo[1,2-a]pyrazin-8-ylamino]-benzamide] | 101 to 500 | > 1000 |
